Experimental data: the kinase profiling compilation of Christmann-Franck et al. (2016)

Legend:
Test in all cases: radiometric filter-binding kinase assay
MARK4 (human) = MARK4 (human) (UniProt Q96L34)
CDK2 CCNA2 (human) = CDK2 CCNA2 (human) (UniProt P20248+P24941)
STK3 (human) = STK3 (human) (UniProt Q13188)
DAPK1 (human) = DAPK1 (human) (UniProt P53355)
TTK (human) = TTK (human) (UniProt P33981)
PKN2 (human) = PKN2 (human) (UniProt Q16513); details: compound 0.01 µM
MAPK9 (human) = MAPK9 (human) (UniProt P45984)
EPHA4 (human) = EPHA4 (human) (UniProt P54764)
IKBKB (human) = IKBKB (human) (UniProt O14920)
MKNK2 (human) = MKNK2 (human) (UniProt Q9HBH9)
MARK3 (human) = MARK3 (human) (UniProt P27448)
RPS6KA5 KD1 KD2 (human) = RPS6KA5 KD1 KD2 (human) (UniProt O75582)
PIM1 (human) = PIM1 (human) (UniProt P11309)
EPHB4 (human) = EPHB4 (human) (UniProt P54760)
YES1 (human) = YES1 (human) (UniProt P07947)
EPHB1 (human) = EPHB1 (human) (UniProt P54762)
[1] = tested on: RPS6KB1 (human), P23443 [T412E]
MAP2K2 (human) = MAP2K2 (human) (UniProt P36507)
[2] = tested on: PAK2 (human), Q13177 [T402E]
PAK6 (human) = PAK6 (human) (UniProt Q9NQU5)
INSRR (human) = INSRR (human) (UniProt P14616)
BTK (human) = BTK (human) (UniProt Q06187)
CSNK2A1 (human) = CSNK2A1 (human) (UniProt P68400)
GCK (human) = GCK (human) (UniProt Q12851)
MAP3K9 (human) = MAP3K9 (human) (UniProt P80192)
EEF2K (human) = EEF2K (human) (UniProt O00418)
PIM3 (human) = PIM3 (human) (UniProt Q86V86)
MAP3K5 (human) = MAP3K5 (human) (UniProt Q99683)
PIM2 (human) = PIM2 (human) (UniProt Q9P1W9)
TBK1 (human) = TBK1 (human) (UniProt Q9UHD2)
NEK6 (human) = NEK6 (human) (UniProt Q9HC98)
MYLK (human) = MYLK (human) (UniProt Q15746)
MAPKAPK2 (human) = MAPKAPK2 (human) (UniProt P49137)
CHEK1 (human) = CHEK1 (human) (UniProt O14757)
MAP2K1 (human) = MAP2K1 (human) (UniProt Q02750)
SRPK1 (human) = SRPK1 (human) (UniProt Q96SB4)

STK3 (human), sequence (Q13188 whole entry, looked up): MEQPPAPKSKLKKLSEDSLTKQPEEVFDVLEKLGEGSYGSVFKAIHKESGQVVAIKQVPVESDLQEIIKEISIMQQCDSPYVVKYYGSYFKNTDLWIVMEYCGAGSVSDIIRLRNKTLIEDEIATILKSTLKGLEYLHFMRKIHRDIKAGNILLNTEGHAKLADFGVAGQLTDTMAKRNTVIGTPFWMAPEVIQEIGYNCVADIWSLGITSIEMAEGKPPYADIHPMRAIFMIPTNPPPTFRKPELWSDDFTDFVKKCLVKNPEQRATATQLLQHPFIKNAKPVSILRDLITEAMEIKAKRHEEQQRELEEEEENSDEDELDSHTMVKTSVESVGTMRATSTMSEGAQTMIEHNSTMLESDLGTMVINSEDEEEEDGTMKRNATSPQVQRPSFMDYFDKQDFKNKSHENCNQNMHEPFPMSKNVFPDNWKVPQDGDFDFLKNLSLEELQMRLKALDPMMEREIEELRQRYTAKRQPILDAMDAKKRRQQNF
RPS6KB1 (human), P23443 [T412E], sequence (P23443 whole entry T412E, looked up): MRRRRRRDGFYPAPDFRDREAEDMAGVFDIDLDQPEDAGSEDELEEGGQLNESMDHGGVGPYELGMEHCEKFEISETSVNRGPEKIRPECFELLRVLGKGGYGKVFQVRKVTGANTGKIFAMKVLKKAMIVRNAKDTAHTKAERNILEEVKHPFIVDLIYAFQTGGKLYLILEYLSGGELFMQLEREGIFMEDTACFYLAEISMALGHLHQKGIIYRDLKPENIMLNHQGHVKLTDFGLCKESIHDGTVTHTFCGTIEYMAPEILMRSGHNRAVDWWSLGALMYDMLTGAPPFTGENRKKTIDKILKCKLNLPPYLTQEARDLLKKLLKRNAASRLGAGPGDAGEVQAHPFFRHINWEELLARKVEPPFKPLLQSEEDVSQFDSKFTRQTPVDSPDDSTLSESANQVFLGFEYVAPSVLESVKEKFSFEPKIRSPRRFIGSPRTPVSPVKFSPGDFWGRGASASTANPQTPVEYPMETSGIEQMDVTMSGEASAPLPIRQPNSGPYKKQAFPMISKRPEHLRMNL
TBK1 (human), sequence (Q9UHD2 whole entry, looked up): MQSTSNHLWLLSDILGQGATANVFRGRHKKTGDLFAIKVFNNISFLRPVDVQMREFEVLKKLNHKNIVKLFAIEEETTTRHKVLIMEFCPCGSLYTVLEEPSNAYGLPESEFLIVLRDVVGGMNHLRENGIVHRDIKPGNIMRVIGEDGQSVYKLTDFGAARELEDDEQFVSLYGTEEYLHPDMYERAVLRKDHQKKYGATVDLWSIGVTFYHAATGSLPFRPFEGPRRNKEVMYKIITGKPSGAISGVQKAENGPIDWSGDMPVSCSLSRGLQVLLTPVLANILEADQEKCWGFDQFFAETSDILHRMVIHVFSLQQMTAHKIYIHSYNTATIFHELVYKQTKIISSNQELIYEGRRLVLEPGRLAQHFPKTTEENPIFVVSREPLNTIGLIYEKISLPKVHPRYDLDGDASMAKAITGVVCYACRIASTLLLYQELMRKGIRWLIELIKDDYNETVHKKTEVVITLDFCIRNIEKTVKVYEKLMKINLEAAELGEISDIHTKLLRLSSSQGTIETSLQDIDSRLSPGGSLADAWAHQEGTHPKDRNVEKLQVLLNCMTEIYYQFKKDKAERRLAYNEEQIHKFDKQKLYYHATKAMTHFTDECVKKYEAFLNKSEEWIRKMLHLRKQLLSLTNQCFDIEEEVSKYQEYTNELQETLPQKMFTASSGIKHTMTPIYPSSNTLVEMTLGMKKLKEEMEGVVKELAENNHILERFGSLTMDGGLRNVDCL
EPHA4 (human), sequence (P54764 whole entry, looked up): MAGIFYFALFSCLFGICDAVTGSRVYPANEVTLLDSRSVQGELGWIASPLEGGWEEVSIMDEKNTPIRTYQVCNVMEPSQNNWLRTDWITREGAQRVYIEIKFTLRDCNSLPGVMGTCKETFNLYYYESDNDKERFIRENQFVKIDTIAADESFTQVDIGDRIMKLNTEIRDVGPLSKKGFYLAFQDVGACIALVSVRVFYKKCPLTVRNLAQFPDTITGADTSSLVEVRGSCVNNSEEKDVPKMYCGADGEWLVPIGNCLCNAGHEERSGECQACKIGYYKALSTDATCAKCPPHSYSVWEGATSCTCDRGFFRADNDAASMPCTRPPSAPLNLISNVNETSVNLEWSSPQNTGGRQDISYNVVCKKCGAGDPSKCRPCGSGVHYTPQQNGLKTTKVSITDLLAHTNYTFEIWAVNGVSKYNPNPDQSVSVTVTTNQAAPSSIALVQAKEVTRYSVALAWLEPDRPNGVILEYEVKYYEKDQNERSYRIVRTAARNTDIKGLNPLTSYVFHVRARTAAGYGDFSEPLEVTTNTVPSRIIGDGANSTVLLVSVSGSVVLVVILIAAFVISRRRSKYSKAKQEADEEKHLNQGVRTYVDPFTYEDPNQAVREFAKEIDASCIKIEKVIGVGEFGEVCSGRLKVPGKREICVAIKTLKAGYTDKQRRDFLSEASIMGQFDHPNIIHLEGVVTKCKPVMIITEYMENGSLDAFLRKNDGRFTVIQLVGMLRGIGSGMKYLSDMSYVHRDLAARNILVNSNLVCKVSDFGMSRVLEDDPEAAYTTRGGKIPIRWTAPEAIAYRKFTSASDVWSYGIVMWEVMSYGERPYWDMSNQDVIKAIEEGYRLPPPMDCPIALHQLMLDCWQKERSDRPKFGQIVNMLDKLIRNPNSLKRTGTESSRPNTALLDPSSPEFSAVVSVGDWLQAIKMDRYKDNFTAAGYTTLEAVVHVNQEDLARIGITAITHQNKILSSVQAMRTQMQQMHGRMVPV
MAP2K1 (human), sequence (Q02750 whole entry, looked up): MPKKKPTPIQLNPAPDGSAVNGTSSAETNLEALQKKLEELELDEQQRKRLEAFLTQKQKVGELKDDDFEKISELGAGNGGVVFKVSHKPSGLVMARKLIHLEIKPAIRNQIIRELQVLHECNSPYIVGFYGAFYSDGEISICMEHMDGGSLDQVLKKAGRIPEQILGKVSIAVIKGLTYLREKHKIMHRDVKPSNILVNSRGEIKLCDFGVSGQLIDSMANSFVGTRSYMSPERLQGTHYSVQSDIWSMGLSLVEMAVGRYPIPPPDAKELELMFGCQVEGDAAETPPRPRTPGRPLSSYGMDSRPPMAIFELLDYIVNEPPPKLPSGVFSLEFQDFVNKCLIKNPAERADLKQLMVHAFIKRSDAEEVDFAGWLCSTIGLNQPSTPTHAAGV
CSNK2A1 (human), sequence (P68400 whole entry, looked up): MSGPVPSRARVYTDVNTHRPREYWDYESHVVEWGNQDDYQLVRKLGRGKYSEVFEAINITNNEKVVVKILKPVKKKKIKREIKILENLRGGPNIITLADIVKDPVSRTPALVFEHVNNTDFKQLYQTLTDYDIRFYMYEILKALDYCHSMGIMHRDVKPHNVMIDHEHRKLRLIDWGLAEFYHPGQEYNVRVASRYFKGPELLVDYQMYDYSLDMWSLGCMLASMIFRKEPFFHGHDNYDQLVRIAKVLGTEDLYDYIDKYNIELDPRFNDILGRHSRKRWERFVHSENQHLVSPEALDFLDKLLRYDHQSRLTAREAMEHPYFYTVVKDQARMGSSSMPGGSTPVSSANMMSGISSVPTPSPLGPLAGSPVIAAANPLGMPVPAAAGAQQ
MKNK2 (human), sequence (Q9HBH9 whole entry, looked up): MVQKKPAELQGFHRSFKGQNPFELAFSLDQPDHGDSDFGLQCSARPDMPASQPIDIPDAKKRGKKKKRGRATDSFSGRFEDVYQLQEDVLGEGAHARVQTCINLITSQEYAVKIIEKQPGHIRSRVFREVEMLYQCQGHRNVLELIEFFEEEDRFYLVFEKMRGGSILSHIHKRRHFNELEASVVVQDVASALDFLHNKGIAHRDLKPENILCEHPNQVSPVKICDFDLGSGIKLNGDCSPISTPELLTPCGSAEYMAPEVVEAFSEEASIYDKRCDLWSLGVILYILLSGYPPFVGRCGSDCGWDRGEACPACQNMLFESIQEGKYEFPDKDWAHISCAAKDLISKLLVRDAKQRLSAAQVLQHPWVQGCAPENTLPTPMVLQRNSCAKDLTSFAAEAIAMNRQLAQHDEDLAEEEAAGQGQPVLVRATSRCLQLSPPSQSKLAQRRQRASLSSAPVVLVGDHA
PAK2 (human), Q13177 [T402E], sequence (Q13177 whole entry T402E, looked up): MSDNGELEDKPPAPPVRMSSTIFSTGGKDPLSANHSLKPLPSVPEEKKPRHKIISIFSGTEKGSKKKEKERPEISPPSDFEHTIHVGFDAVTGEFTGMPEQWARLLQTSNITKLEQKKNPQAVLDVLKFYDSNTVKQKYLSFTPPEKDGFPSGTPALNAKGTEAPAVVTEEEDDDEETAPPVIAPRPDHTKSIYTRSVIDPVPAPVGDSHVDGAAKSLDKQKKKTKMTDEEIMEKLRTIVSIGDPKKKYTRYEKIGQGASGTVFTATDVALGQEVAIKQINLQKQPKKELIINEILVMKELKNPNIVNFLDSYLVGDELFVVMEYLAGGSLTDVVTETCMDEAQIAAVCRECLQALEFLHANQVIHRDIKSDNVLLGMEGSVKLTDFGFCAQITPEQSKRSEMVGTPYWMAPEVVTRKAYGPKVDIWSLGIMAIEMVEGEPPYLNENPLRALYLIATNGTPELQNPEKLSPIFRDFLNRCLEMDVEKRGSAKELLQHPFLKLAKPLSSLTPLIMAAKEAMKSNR
MAPK9 (human), sequence (P45984 whole entry, looked up): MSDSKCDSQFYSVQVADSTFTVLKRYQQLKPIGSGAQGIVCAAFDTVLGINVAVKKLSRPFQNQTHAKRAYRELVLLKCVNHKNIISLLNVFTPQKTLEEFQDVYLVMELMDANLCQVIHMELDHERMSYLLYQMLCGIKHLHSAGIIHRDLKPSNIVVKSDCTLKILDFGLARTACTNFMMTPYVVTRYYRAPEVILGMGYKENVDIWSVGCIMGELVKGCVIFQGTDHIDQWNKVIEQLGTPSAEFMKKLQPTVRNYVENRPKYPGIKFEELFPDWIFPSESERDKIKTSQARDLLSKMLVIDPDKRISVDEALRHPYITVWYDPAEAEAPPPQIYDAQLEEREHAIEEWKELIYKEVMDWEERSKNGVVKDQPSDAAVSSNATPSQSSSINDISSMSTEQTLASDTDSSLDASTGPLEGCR

COc1cc(O)c2c(c1)[C@H]1OC1C[C@H](O)[C@H](O)C(=O)/C=C\C[C@H](C)OC2=O (stereo not given in full)
residual activity (MARK4 (human); compound 0.01 µM): 103% | residual activity (MARK4 (human); compound 0.1 µM): 99% | residual activity (CDK2 CCNA2 (human); compound 0.01 µM): 91% | residual activity (CDK2 CCNA2 (human); compound 0.1 µM): 81% | residual activity (CDK2 CCNA2 (human); compound 1.0 µM): 76% | residual activity (STK3 (human); compound 0.01 µM): 97% | residual activity (STK3 (human); compound 0.1 µM): 89% | residual activity (STK3 (human); compound 1.0 µM): 102% | residual activity (DAPK1 (human); compound 0.01 µM): 82% | residual activity (DAPK1 (human); compound 0.1 µM): 108% | residual activity (DAPK1 (human); compound 1.0 µM): 96% | residual activity (TTK (human); compound 0.01 µM): 101% | residual activity (TTK (human); compound 0.1 µM): 95% | residual activity (TTK (human); compound 1.0 µM): 101% | residual activity (PKN2 (human)): 93% | residual activity (MAPK9 (human); compound 0.01 µM): 105% | residual activity (MAPK9 (human); compound 0.1 µM): 106% | residual activity (MAPK9 (human); compound 1.0 µM): 99% | residual activity (EPHA4 (human); compound 0.01 µM): 109% | residual activity (EPHA4 (human); compound 0.1 µM): 122% | residual activity (EPHA4 (human); compound 1.0 µM): 107% | residual activity (IKBKB (human); compound 0.01 µM): 103% | residual activity (IKBKB (human); compound 0.1 µM): 100% | residual activity (IKBKB (human); compound 1.0 µM): 112% | residual activity (MKNK2 (human); compound 0.01 µM): 91% | residual activity (MKNK2 (human); compound 0.1 µM): 62% | residual activity (MKNK2 (human); compound 1.0 µM): 44% | residual activity (MARK3 (human); compound 0.01 µM): 98% | residual activity (MARK3 (human); compound 0.1 µM): 102% | residual activity (MARK3 (human); compound 1.0 µM): 95% | residual activity (RPS6KA5 KD1 KD2 (human); compound 0.01 µM): 108% | residual activity (RPS6KA5 KD1 KD2 (human); compound 0.1 µM): 104% | residual activity (RPS6KA5 KD1 KD2 (human); compound 1.0 µM): 104% | residual activity (PIM1 (human); compound 0.01 µM): 90% | residual activity (PIM1 (human); compound 0.1 µM): 87% | residual activity (PIM1 (human); compound 1.0 µM): 92% | residual activity (EPHB4 (human); compound 0.01 µM): 109% | residual activity (EPHB4 (human); compound 0.1 µM): 116% | residual activity (YES1 (human); compound 0.01 µM): 87% | residual activity (YES1 (human); compound 0.1 µM): 85% | residual activity (EPHB1 (human); compound 0.01 µM): 97% | residual activity (EPHB1 (human); compound 0.1 µM): 110% | residual activity (EPHB1 (human); compound 1.0 µM): 84% | residual activity ([1]; compound 0.01 µM): 87% | residual activity ([1]; compound 0.1 µM): 92% | residual activity ([1]; compound 1.0 µM): 106% | residual activity (MAP2K2 (human); compound 0.01 µM): 74% | residual activity (MAP2K2 (human); compound 0.1 µM): 21% | residual activity (MAP2K2 (human); compound 1.0 µM): 9% | residual activity ([2]; compound 0.01 µM): 99% | residual activity ([2]; compound 0.1 µM): 94% | residual activity ([2]; compound 1.0 µM): 95% | residual activity (PAK6 (human); compound 0.01 µM): 92% | residual activity (PAK6 (human); compound 0.1 µM): 95% | residual activity (PAK6 (human); compound 1.0 µM): 95% | residual activity (INSRR (human); compound 0.01 µM): 104% | residual activity (INSRR (human); compound 0.1 µM): 108% | residual activity (INSRR (human); compound 1.0 µM): 113% | residual activity (BTK (human); compound 0.01 µM): 105% | residual activity (BTK (human); compound 0.1 µM): 115% | residual activity (BTK (human); compound 1.0 µM): 109% | residual activity (CSNK2A1 (human); compound 0.01 µM): 123% | residual activity (CSNK2A1 (human); compound 0.1 µM): 121% | residual activity (CSNK2A1 (human); compound 1.0 µM): 133% | residual activity (GCK (human); compound 0.01 µM): 114% | residual activity (GCK (human); compound 0.1 µM): 105% | residual activity (GCK (human); compound 1.0 µM): 97% | residual activity (MAP3K9 (human); compound 0.01 µM): 112% | residual activity (MAP3K9 (human); compound 0.1 µM): 117% | residual activity (MAP3K9 (human); compound 1.0 µM): 101% | residual activity (EEF2K (human); compound 0.01 µM): 91% | residual activity (EEF2K (human); compound 0.1 µM): 103% | residual activity (PIM3 (human); compound 0.01 µM): 92% | residual activity (PIM3 (human); compound 0.1 µM): 98% | residual activity (PIM3 (human); compound 1.0 µM): 99% | residual activity (MAP3K5 (human); compound 0.01 µM): 105% | residual activity (MAP3K5 (human); compound 0.1 µM): 103% | residual activity (MAP3K5 (human); compound 1.0 µM): 109% | residual activity (PIM2 (human); compound 0.01 µM): 93% | residual activity (PIM2 (human); compound 0.1 µM): 114% | residual activity (TBK1 (human); compound 0.01 µM): 110% | residual activity (TBK1 (human); compound 0.1 µM): 112% | residual activity (TBK1 (human); compound 1.0 µM): 93% | residual activity (NEK6 (human); compound 0.01 µM): 97% | residual activity (NEK6 (human); compound 0.1 µM): 90% | residual activity (NEK6 (human); compound 1.0 µM): 98% | residual activity (MYLK (human); compound 0.01 µM): 108% | residual activity (MYLK (human); compound 0.1 µM): 102% | residual activity (MYLK (human); compound 1.0 µM): 96% | residual activity (MAPKAPK2 (human); compound 0.01 µM): 93% | residual activity (MAPKAPK2 (human); compound 0.1 µM): 101% | residual activity (CHEK1 (human); compound 0.01 µM): 93% | residual activity (CHEK1 (human); compound 0.1 µM): 93% | residual activity (CHEK1 (human); compound 1.0 µM): 94% | residual activity (MAP2K1 (human); compound 0.01 µM): 101% | residual activity (MAP2K1 (human); compound 0.1 µM): 21% | residual activity (MAP2K1 (human); compound 1.0 µM): 1% | residual activity (SRPK1 (human); compound 0.01 µM): 111% | residual activity (SRPK1 (human); compound 0.1 µM): 95% | residual activity (SRPK1 (human); compound 1.0 µM): 100%
